The source of these data is patent publication US9850283B2, “Macrocyclic inhibitors of the PD-1/PD-L1 and CD80(B7-1)/PD-L1 protein/protein interactions” (BRISTOL-MYERS SQUIBB COMPANY, priority 2013, dated 2017).

One experiment deals with T1, Human PD-L1/PD-1 (Homo sapiens, UniProt Q9NZQ7).
T1 construct: made in house; host or cells: HEK293T
Description: HTRF PD-1-Ig/PD-L1-His binding assay (human PD-L1). Conditions: cluster symbol; read-out: HTRF IC50 cluster. A digest of the protocol:
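Ig- and His-fused extracellular PD-1/PD-L1 binding in BSA/Tween-20 dPBS. HTRF with Eu anti-Ig (1 nM final) and APC anti-His (20 nM final).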
Background: In TR-FRET formats the signal depends on donor and acceptor labels being close together.

The target in experiment [1] is T2, LK35.2-hPD-L1 cells / PE-labeled PD-1-Ig (Homo sapiens, UniProt Q9NZQ7).
T2 construct: expressed in transfected cells; host or cells: LK35.2 mouse B cell line
T2 sequence (Q9NZQ7 19-290): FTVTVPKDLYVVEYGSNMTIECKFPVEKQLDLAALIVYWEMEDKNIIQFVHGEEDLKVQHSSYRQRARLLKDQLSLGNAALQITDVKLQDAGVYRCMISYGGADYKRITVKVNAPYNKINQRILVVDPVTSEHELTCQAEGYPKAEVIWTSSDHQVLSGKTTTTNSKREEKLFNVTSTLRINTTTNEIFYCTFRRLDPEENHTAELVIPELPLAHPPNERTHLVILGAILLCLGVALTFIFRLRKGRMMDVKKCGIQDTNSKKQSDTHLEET
Description: LK35.2-hPD-L1 cell binding high-content screening assay. Format: cell-based. The conditions noted are these: cluster symbol, read-out: CBA IC50 cluster. A digest of the protocol: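 Readout: high-content imaging of PE-PD-1-Ig bound to LK35.2-hPD-L1 cells. Cells plated overnight (RPMI/10% FCS); compound + 1 nM PE-PD-1-Ig, 1 h, 37 °C; 3× dPBS wash before imaging.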

[2] abbreviates: cell binding assay, cell line not given.

As a reminder, the IC50 is the point on the concentration scale where inhibition reaches its midpoint.

Like-named read-outs stand apart in the source and are kept apart here. Starred links: 1 amine or outer side, 2 acyl side, 3 side chain; linkers in the order of their positions; H or OH if unused. Positions of bridges follow the written chain, without caps; N, C: chain ends. Non-standard residues stand in square brackets, D forms with d. Residues, ends and D or L forms follow the SMILES beside them. ξ: configuration not given here. X5 = CCCOc1ccc(-c2[nH]c3ccccc3c2C[C@H](N[*:1])C(=O)[*:2])cc1; Hyp = O=C(O)[C@@H]1C[C@@H](O)CN1; NMeF = CN[C@@H](Cc1ccccc1)C(=O)O; AllylGly = C=CC[C@H](N)C(=O)O; NMeNle = CCCC[C@H](NC)C(=O)O; ξR = N=C(N)NCCCC(N)C(=O)O; NMeA = CN[C@@H](C)C(=O)O; Dab = NCC[C@H](N)C(=O)O; Dap = NC[C@H](N)C(=O)O; Sar = CNCC(=O)O

T1 sequence (Q9NZQ7 with tags, fused parts or gaps): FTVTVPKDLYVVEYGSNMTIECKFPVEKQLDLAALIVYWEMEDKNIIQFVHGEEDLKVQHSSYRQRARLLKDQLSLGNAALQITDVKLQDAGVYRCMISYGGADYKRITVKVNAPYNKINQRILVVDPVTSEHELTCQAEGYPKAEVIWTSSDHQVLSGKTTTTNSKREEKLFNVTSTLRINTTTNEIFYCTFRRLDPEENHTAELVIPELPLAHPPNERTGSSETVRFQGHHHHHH

Turning to `CCCC[C@H]1C(=O)N(C)[C@@H](CCCC)C(=O)NC(CCCNC(=N)N)C(=O)N[C@H](C(=O)NCC(N)=O)CSCC(=O)N[C@@H](Cc2ccc(O)cc2)C(=O)N(C)[C@@H](C)C(=O)N[C@@H](CC(N)=O)C(=O)N2CCC[C@H]2C(=O)N[C@@H](CN)C(=O)N[C@@H](CC(C)C)C(=O)N2C[C@H](O)C[C@H]2C(=O)N[C@@H](Cc2c[nH]c3ccccc23)C(=O)N[C@@H](CO)C(=O)N[C@@H](Cc2c(-c3ccc(OCCC)cc3)[nH]c3ccccc23)C(=O)N1C` (stereo partly drawn) [Example 7005] ({CH2CO}-Y[NMeA]NP[Dap]L[Hyp]WS[X5][NMeNle][NMeNle][ξR]CG-NH2; thioether N-14), the half-maximal inhibitory concentration (IC50) on Human PD-L1/PD-1 was in the range of 0.385 to 6.74 nM; in experiment [1] (setting [2]), 4.78 to 72.9 nM.
Consider `C=CC[C@@H]1NC(=O)[C@H](Cc2c[nH]c3ccccc23)NC(=O)[C@@H]2CCCN2C(=O)[C@H](CC(C)C)NC(=O)[C@H](CN)NC(=O)[C@@H]2CCCN2C(=O)[C@H](CC(N)=O)NC(=O)[C@H](C)N(C)C(=O)[C@H](Cc2ccc(O)cc2)NC(=O)CSC[C@@H](C(=O)NCC(N)=O)NC(=O)[C@H](CC=C)NC(=O)[C@H](CCCC)N(C)C(=O)[C@H](CCCC)N(C)C(=O)[C@H](Cc2c[nH]c3ccccc23)NC1=O` [Example 7022] ({CH2CO}-Y[NMeA]NP[Dap]LPW[AllylGly]W[NMeNle][NMeNle][AllylGly]CG-NH2; thioether N-14), for which the IC50 on Human PD-L1/PD-1 was 6.76 to 30.3 nM; in experiment [1] (setting [2]), 4.78 to 72.9 nM.
As to `CCCC[C@H]1C(=O)N(C)CC(=O)N[C@@H](CC(=O)O)C(=O)N[C@@H]([C@@H](C)OC)C(=O)N(C)[C@@H](Cc2ccccc2)C(=O)N[C@@H](Cc2ccc(O)cc2)C(=O)N(C)CC(=O)N[C@@H](Cc2c[nH]c3ccccc23)C(=O)N[C@@H](Cc2ccc(O)cc2)C(=O)N[C@@H](CC(C)C)C(=O)N[C@H](C(=O)NCC(N)=O)CSCC(=O)N[C@@H](Cc2ccccc2)C(=O)N(C)[C@@H](Cc2ccccc2)C(=O)N1C` [Example 3157] ({CH2CO}-F[NMeF][NMeNle][Sar]DT(Me)[NMeF]Y[Sar]WYLCG-NH2; thioether N-13), the values for the IC50 (at Human PD-L1/PD-1; in experiment [1] (cell line of CBA not given (LK35.2-hPD-L1 or 293T-hPD-L1))) were 6.76 to 30.3 nM and 4.78 to 72.9 nM, respectively.
On to `CCCC[C@H]1C(=O)N(C)[C@@H](CCCC)C(=O)N[C@@H](Cc2ccccn2)C(=O)N[C@H](C(=O)NCC(N)=O)CSCC(=O)N[C@@H](Cc2ccc(O)cc2)C(=O)N(C)[C@@H](C)C(=O)N[C@@H](CC(N)=O)C(=O)N2CCC[C@H]2C(=O)N[C@@H](Cc2cnc[nH]2)C(=O)N[C@@H](CC(C)C)C(=O)N2C[C@H](O)C[C@H]2C(=O)N[C@@H](Cc2c[nH]c3ccccc23)C(=O)N[C@@H](CO)C(=O)N[C@@H](Cc2c[nH]c3ccccc23)C(=O)N1C` [Example 7032], for which the half-maximal inhibitory concentration (IC50) at Human PD-L1/PD-1 lay within 0.385 to 6.74 nM; in experiment [1] (setting [2]) it was 4.78 to 72.9 nM.
For `CCCC[C@H]1C(=O)N(C)[C@@H](CCCC)C(=O)N[C@@H](CC(C)C)C(=O)N[C@H](C(=O)NCC(N)=O)CSCC(=O)N[C@@H](Cc2ccc(O)cc2)C(=O)N(C)[C@@H](C)C(=O)N[C@@H](CC(N)=O)C(=O)N2CCC[C@H]2C(=O)N[C@@H](CO)C(=O)N[C@@H](CCC(=O)O)C(=O)N2C[C@H](O)C[C@H]2C(=O)N[C@@H](Cc2c[nH]c3ccccc23)C(=O)N[C@@H](CCN)C(=O)N[C@@H](Cc2c[nH]c3ccccc23)C(=O)N1C` [Example 5074] ({CH2CO}-Y[NMeA]NPSE[Hyp]W[Dab]W[NMeNle][NMeNle]LCG-NH2; thioether N-14), in that order: 0.385 to 6.74 nM and 0.158 to 4.71 nM.
Take `CCCC[C@H]1C(=O)N(C)[C@@H](CCCC)C(=O)N[C@@H](CCCNC(=N)N)C(=O)N[C@H](C(=O)NCC(N)=O)CSCC(=O)N[C@@H](Cc2ccc(O)cc2)C(=O)N(C)[C@@H](C)C(=O)N[C@@H](CCN)C(=O)N2CCC[C@H]2C(=O)N[C@@H](Cc2c[nH]cn2)C(=O)N[C@@H](CC(C)C)C(=O)N2C[C@H](O)C[C@H]2C(=O)N[C@@H](Cc2c[nH]c3ccccc23)C(=O)N[C@@H](CO)C(=O)N[C@@H](Cc2c[nH]c3ccccc23)C(=O)N1C` [Example 5094] ({CH2CO}-Y[NMeA][Dab]PHL[Hyp]WSW[NMeNle][NMeNle]RCG-NH2; thioether N-14): the IC50 on Human PD-L1/PD-1 was in the range of 0.385 to 6.74 nM; in experiment [1] (setting [2]) it was 4.78 to 72.9 nM.
